Laboratory results as given in BindingDB's records for doi:10.1016/1074-5521(95)90124-8 (University of California San Diego, 1995).
pIC50, pKi: −log10 of the molar value. Where a name gives a salt, the structure may show the parent alone.

What was measured:
[1] = molecular target: cAMP-dependent protein kinase (Oryctolagus cuniculus, UniProt Q95J97); test: Inhibition Assay; conditions: pH 7.5
Source text: Cyclic AMP-dependent protein kinase (PKA) enzyme inhibition assay using purified recombinant C subunit of PKA (catalytic (C) subunit (cPKA)) with holoenzyme purified from rabbit muscle.

[2] = molecular target: Protein kinase C beta type (Rattus norvegicus, UniProt P68403); test: Inhibition Assay; conditions: 30 °C
Protein kinase C beta type, sequence (P68403 whole entry): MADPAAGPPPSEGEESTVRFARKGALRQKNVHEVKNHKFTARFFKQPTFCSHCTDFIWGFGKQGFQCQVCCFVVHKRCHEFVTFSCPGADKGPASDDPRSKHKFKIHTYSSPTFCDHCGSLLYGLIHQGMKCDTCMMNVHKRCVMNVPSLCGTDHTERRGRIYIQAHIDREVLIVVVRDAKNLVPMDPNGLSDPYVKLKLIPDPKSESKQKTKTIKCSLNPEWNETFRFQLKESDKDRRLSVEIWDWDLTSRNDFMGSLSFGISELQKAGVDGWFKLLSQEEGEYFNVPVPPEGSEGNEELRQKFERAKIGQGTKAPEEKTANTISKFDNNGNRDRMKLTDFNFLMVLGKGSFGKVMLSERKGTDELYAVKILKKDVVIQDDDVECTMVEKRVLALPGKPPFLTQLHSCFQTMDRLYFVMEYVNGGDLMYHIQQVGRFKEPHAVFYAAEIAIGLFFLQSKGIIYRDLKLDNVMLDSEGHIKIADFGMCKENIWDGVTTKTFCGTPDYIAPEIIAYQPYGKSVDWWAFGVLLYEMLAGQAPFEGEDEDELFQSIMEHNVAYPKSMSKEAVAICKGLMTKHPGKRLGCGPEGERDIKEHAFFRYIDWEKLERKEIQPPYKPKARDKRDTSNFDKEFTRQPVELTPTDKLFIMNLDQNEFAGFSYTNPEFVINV

SMILES | pKi [1] | pIC50 ([1]; 30 °C) | pKi ([1]; 30 °C) | pIC50 ([2]; pH 7.5) | pKi ([2]; pH 7.5) | pIC50 [2] | pKi [2]
CN[C@@H]1C[C@H]2O[C@@](C)([C@@H]1OC)n1c3ccccc3c3c4c(c5c6ccccc6n2c5c31)C(=O)NC4 | 7.46 |  |  |  |  |  | 
O=C(N[C@@H]1CNCCC[C@H]1OC(=O)c1cc(O)c(C(=O)c2ccccc2C(=O)O)c(O)c1)c1ccc(O)cc1 |  | 8.20 | 8.41 | 6.08 | 6.19 |  | 
O=C(N[C@@H]1CNCCC[C@H]1OC(=O)c1ccc(C(=O)c2c(O)cccc2C(=O)O)cc1)c1ccc(O)cc1 [4'',6''-Dideoxybalanol, 6] |  | 8.26 | 8.47 | 6.95 | 7.10 |  | 
O=C(N[C@@H]1CNCCC[C@H]1OC(=O)c1cc(O)c(C(=O)c2c(O)cccc2C(=O)O)c(O)c1)c1ccccc1 [5'-Deoxybalanol, 7] |  | 8.24 | 8.46 | 7.02 | 7.16 |  | 
O=C(N[C@@H]1CNCCC[C@H]1OC(=O)c1cc(O)c(C(=O)c2ccccc2O)c(O)c1)c1ccc(O)cc1 [14''-Decarboxybalanol hydrochloride, 5] |  | 7.74 | 7.96 |  |  | 5.16 | 5.30
O=C(N[C@@H]1CNCCC[C@H]1OC(=O)c1cc(O)c(C(=O)c2c(O)cccc2C(=O)O)c(O)c1)c1ccc(O)cc1 [Acyclic Balanol Analog (-)-1] |  |  |  |  |  |  | 8.28
COC(=O)c1cc(O)c(C(=O)c2c(O)cccc2C(=O)O)c(O)c1 [Benzophenone fragment, 2] |  |  | < 5.00 |  | < 3.00 |  | 
O=S(ONCCNC/C=C/c1ccc(Br)cc1)c1cccc2cnccc12 (stereo unspecified) [H-89, 10] | 7.32 |  |  |  |  |  | 4.50
O=C(N[C@@H]1CNCCC[C@H]1O)c1ccc(O)cc1 [Hexahydroazepine, 3] | < 5.00 |  |  |  |  |  | < 3.00
CCCCCCOC(=O)[C@@]1(O)CC2O[C@]1(C)n1c3ccccc3c3c4c(c5c6ccccc6n2c5c31)C(=O)NC4 [KT5720, 9] | 7.25 |  |  |  |  |  | < 5.70
